Assay results: article PMC7725506, “Functional Diversification of SRSF Protein Kinase to Control Ubiquitin-Dependent Neurodevelopmental Signaling” (Developmental Cell, 2020)

Legend:
[1] = biological target: 50 representative kinases; test: Kinase inhibitor profiling, in vitro kinase assays for 50 representative kinases; type: biochemical; settings: 1 μM, SRPK1 compared with 49 other kinases
Description: Kinase activity towards specific peptides was assessed in comparison to DMSO control. Full details are available at http://www.kinase-screen.mrc.ac.uk/services/express-screen.
Supplemental Figure Legends
Figure S1. Differential inhibitor sensitivities and expression profiles of SRPK kinases (Related to Figure 1). (A) Wild-type (WT) mESCs were analysed for protein copy number by absolute quantitative proteomics. SRPK1, SRPK2 and SRPK3 protein copy numbers are shown.
Data are represented as mean ± S.E.M. (n=3). Unpaired Student’s t test, two-sided, confidence level 95%. (****) P<0.0001. ND = not detected. (B) Inhibition of RNF12 phosphorylation in vitro by SRPK1 and SRPK2 in the presence of varying concentrations of the indicated SRPK inhibitors was determined by immunoblotting for RNF12 phospho-Ser214 (Left). RNF12 levels are shown as a control. Immunoblots were quantified to generate SRPK inhibitor dose-response curves for inhibition of RNF12 phosphorylation by SRPK1 and SRPK2 in vitro (Right). (C) WT, Srpk1-/- and Srpk2-/- mESCs were cultured and SRPK protein expression was analysed via immunoblotting. […]
SR-motif phosphorylation of HA-immunoprecipitated RNF12 analysed by phos-tag immunoblotting. […]
(DYRK1A inhibitor), WEHI-345 (RIPK2 inhibitor), IRAK-4-Inhibitor-a (IRAK4 inhibitor) and GSK-461364 (PLK1/2 inhibitor) for 4 h, and RNF12 phosphorylation analysed via phos-tag immunoblotting. […]

SRPK2 = SRPK2 (Homo sapiens, UniProt P78362); test: REX1 fluorescent ubiquitylation assay with recombinant RNF12 incubated with SRPK2; type: biochemical; settings: pre-incubation with 10 μM
Sequence of SRPK2 (P78362 1-699 isoform P78362-2): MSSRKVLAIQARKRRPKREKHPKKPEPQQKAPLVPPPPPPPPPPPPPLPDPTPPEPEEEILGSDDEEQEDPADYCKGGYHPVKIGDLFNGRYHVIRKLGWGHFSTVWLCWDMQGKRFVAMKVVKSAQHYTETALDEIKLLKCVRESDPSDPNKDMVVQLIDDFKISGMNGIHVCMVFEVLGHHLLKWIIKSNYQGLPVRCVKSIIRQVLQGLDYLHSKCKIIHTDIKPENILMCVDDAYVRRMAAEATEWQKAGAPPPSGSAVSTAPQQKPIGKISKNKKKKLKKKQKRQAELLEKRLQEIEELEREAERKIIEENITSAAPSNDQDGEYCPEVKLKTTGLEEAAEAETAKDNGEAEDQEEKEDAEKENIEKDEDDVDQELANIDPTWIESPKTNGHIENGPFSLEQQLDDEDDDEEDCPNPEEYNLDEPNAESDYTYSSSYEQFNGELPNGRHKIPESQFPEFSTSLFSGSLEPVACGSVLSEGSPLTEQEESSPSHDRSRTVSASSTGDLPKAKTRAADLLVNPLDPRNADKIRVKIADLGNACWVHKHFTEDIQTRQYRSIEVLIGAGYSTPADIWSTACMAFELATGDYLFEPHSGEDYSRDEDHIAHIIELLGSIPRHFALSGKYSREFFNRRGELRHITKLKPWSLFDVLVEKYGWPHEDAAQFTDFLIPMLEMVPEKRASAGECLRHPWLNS
Description: Infrared scans of ubiquitylated substrate signal (Top) and quantification (Bottom). Data represented as mean ± SEM (n = 3). […] (^∗) p = 0.0350. Phospho-Ser214 and total RNF12, REX1, and SRPK2 infrared immunoblots are shown. ^∗ = non-specific fluorescent signal. (B) Recombinant RNF12 was incubated with WT or kinase dead (KD) SRPK2 and subjected to REX1 fluorescent ubiquitylation assays. Infrared scans of ubiquitylated substrate signal (Top) and quantification (Bottom). Data represented as mean ± SEM (n = 3). […] (^∗∗∗∗) p < 0.0001. Phospho-Ser214 and total RNF12, REX1, and SRPK2 infrared immunoblots are shown. ^∗ = non-specific fluorescent signal. (C) Recombinant RNF12 was incubated with WT or KD SRPK2 and SMAD7 ubiquitylation assessed. Infrared scans of ubiquitylated substrate signal (Top) and quantification (Bottom). Data represented as mean ± SD (n = 2). Phospho-Ser214 and total RNF12, REX1, and SRPK2 infrared immunoblots are shown. ^∗ = non-specific fluorescent signal. (D) Recombinant RNF12 was incubated with WT (pRNF12) or KD (unpRNF12) SRPK2 and subjected to E2 ubiquitin discharge assay. Infrared immunoblot scans (Top Left), reaction rate determinations (Top Right) and normalized quantification of E2-ubiquitin conjugate signal (Bottom) are shown. […] RNF12, REX1, phospho-Ser214 RNF12 and SRPK1 infrared immunoblots (Top) and RNF12-REX1 binding quantification (bottom) are shown. […]

## CCc1cc2c(cc1-c1cccc(S(=O)(=O)F)c1)C(C)(C)c1[nH]c3cc(C#N)ccc3c1C2=O [SRPKIN-1]
[1]
  kinase inhibition specificity: highly specific
SRPK2
  enhancement of REX1 ubiquitylation following RNF12 phosphorylation by SRPK2: not observed
